Assay: Human HepG2 cell viability assay in 384 well format
Type: toxicity, cell-based
Set-up: dose 125 nL, time 70.5 hour; cytotoxicity at 70.5 h: concentration not given beside the values
Conditions: HepG2 cells, read-out: Inhibition

Compound: COc1cc(N2C[C@H]3OCC[C@H]3[C@H](C(=O)NC3CC3)C2)ncn1
- cytotoxicity at 70.5 h: -4.39%

Compound: Cc1ccc(N2CCCc3sc(C(=O)NCc4cccnc4)nc32)nn1
- cytotoxicity at 70.5 h: -10.4%

Compound: CN(C)c1nccc(N2CCO[C@H]3CN(CC4CCOCC4)C[C@H]32)n1
- cytotoxicity at 70.5 h: -7.1%

Compound: CCn1ncc2c1C(COCC1CC1)CN(C(=O)c1cccs1)C2 (stereo not given)
- cytotoxicity at 70.5 h: 6.27%

Compound: Cc1oncc1C(=O)N1CCC2(CCN(Cc3ccccn3)C2=O)C1 (stereo not given)
- cytotoxicity at 70.5 h: -0.113%

Compound: CCC(C)NC(=O)N1CCCn2cnc(CO)c2C1 (stereo not given)
- cytotoxicity at 70.5 h: -7.63%

Compound: CN1C(=O)C[C@@H]2[C@@H]1CCN2S(=O)(=O)Cc1ccccc1
- cytotoxicity at 70.5 h: -3.44%

Compound: CCN1Cc2c(C(=O)NCC3CC3)ncn2-c2ccccc2S1(=O)=O
- cytotoxicity at 70.5 h: -9.23%

Compound: COCCN1C[C@H]2[C@@H](C1)N(Cc1ccc(C)o1)CC[C@H]2OC
- cytotoxicity at 70.5 h: -5.94%

Compound: CCN1CC2(CC1=O)CN(C(C)=O)CCN(C(=O)c1ccco1)C2 (stereo not given)
- cytotoxicity at 70.5 h: -9.45%

Compound: Cc1csc(CN2CC[C@H]3C[C@H](c4nnc(C)[nH]4)O[C@@H]3C2)n1
- cytotoxicity at 70.5 h: 20.1%

Compound: CCOCC1CN(Cc2ccoc2)Cc2ncn(CC3CC3)c21 (stereo not given)
- cytotoxicity at 70.5 h: 5.39%

Compound: COCCO[C@H]1CCN(C(=O)c2ccno2)[C@H]1Cc1cnn(C)c1
- cytotoxicity at 70.5 h: -0.314%

Compound: CCN1CC2(CC1=O)CN(Cc1cccs1)CCN(C(=O)C(C)C)C2 (stereo not given)
- cytotoxicity at 70.5 h: 2.16%

Compound: COCCN1C[C@@H]2CN(c3ncccn3)C[C@@H]2C1=O
- cytotoxicity at 70.5 h: -7.68%

Compound: CNC(=O)N1CC[C@H]2N(C)CC[C@@]2(C(=O)Nc2ccccc2)CC1
- cytotoxicity at 70.5 h: -4.01%

Compound: O=C(C1CCOCC1)N1CCO[C@H]2[C@@H](OCc3ccncc3)CC[C@@H]21
- cytotoxicity at 70.5 h: -4.02%

Compound: Cc1noc([C@H]2COC[C@H]3CN(C(=O)Cc4ccc(F)cc4)C[C@H]32)n1
- cytotoxicity at 70.5 h: -2.96%

Compound: CCC1=N[C@@]2(CC[C@@H]3CN(C(=O)Nc4ccc(F)cc4)C[C@@H]32)C(=O)N1
- cytotoxicity at 70.5 h: 0.571%

Compound: CCN1CCC2(CC1)CC(Nc1ncccn1)CO2 (stereo not given)
- cytotoxicity at 70.5 h: -1.36%

Compound: O=C(c1ccncc1F)N1CCN(CC2CC2)c2ncccc2C1
- cytotoxicity at 70.5 h: 24.5%

Compound: COCCN1CCN(C(=O)c2ccncc2F)Cc2cccnc21
- cytotoxicity at 70.5 h: -12.3%

Compound: CC(C)CS(=O)(=O)N1C[C@H]2C[C@H](C(=O)NCc3ccccc3)[C@@H](C1)O2
- cytotoxicity at 70.5 h: -7.71%

Compound: CCN1C[C@H]2CCN(C(=O)NC3CCCC3)CC[C@H]2S1(=O)=O
- cytotoxicity at 70.5 h: 12.8%

Compound: Cc1nc(N2CCCC2)nc2c1CCN(C(=O)C1CCCC1)CC2
- cytotoxicity at 70.5 h: -9.52%

Compound: Cc1cccc(C2N3CCC4(CC3)c3[nH]c5ccccc5c3CCN24)n1 (stereo not given)
- cytotoxicity at 70.5 h: 5.13%

Compound: Fc1ccc2[nH]c3c(c2c1)CCN1C(c2ccncc2)N2CCC31CC2 (stereo not given)
- cytotoxicity at 70.5 h: 22.4%

Compound: CC1CCc2nn(CCNC(=O)Cc3ccccc3F)c(=O)cc2C1 (stereo not given)
- cytotoxicity at 70.5 h: 0.912%

Compound: CC1CCc2nn(CCNC(=O)Cc3ccc(F)cc3)c(=O)cc2C1 (stereo not given)
- cytotoxicity at 70.5 h: -4.91%

Compound: Cn1ccnc1CN1CCCC(CCCc2ccccn2)(C(N)=O)C1 (stereo not given)
- cytotoxicity at 70.5 h: -4.1%

Compound: Fc1ccccc1Oc1nccnc1C1CCN(C2CCOCC2)CC1
- cytotoxicity at 70.5 h: 30.2%

Compound: CC(C)CC(=O)NC[C@H]1CC[C@H](C(c2ccccn2)N(C)C)CC1 (stereo not given in full)
- cytotoxicity at 70.5 h: -3.76%

Compound: CN(C)C(c1ccccn1)[C@H]1CC[C@H](CNC(=O)C2CCCC2)CC1 (stereo not given in full)
- cytotoxicity at 70.5 h: -2.3%

Compound: Cc1c(C(=O)N(C)CC(F)(F)F)nnn1-c1ccc(F)cc1
- cytotoxicity at 70.5 h: 0.0353%

Compound: Cc1cnc2[nH]c(C(F)(F)F)c(CN3CCOCC3)c2c1
- cytotoxicity at 70.5 h: 21.8%

Compound: CCn1cc(C(=O)NCCc2nc(-c3ccc(C)cc3)n[nH]2)c(C)n1
- cytotoxicity at 70.5 h: -4.26%

Compound: CCn1ncc(C(=O)NCCc2nc(-c3ccc(C)cc3)n[nH]2)c1C
- cytotoxicity at 70.5 h: -0.645%

Compound: Cc1nc(C)n(CCNC(=O)C2(C)CC(c3ccccc3)=NO2)n1 (stereo not given)
- cytotoxicity at 70.5 h: 1.37%

Compound: Cn1ccc(C2CCCCCN2C(=O)c2cccnc2)n1 (stereo not given)
- cytotoxicity at 70.5 h: -2.46%

Compound: Cc1ccc2nc(C)cc(NCCNS(=O)(=O)c3cccnc3)c2c1
- cytotoxicity at 70.5 h: -2.02%

Compound: COc1cc2c(cc1CN1CCc3sccc3C1C)OCCO2 (stereo not given)
- cytotoxicity at 70.5 h: 2.33%

Compound: CC(C)CC(=O)N1C[C@H]2CCCN(S(=O)(=O)c3ccc(Cl)s3)[C@H]2C1
- cytotoxicity at 70.5 h: 14.6%

Compound: CNc1cccc(C2CN(C(=O)c3c[nH]cn3)CCO2)n1 (stereo not given)
- cytotoxicity at 70.5 h: 5.85%

Compound: Cc1noc(C)c1CCC(=O)NCC1(O)CCCN(c2ccccn2)C1 (stereo not given)
- cytotoxicity at 70.5 h: -5.72%

Compound: CC(=O)N1CCC(c2cncc(N3CCCC(O)C3)n2)CC1 (stereo not given)
- cytotoxicity at 70.5 h: -4.12%

Compound: Cc1nccnc1C1CCN(C2CCCC2O)CC1 (stereo not given)
- cytotoxicity at 70.5 h: -0.726%

Compound: c1cc2cc[nH]c2c(CC2CN(Cc3cncs3)C2)n1
- cytotoxicity at 70.5 h: 7.7%

Compound: CN(C)S(=O)(=O)N1CC(c2nc(N)ncc2-c2ccc(F)cc2)C1
- cytotoxicity at 70.5 h: -0.38%

Compound: CNc1cc(C2CN(C(=O)c3cnn(C)c3)CCO2)nc(C)n1 (stereo not given)
- cytotoxicity at 70.5 h: 13.9%

Compound: CNc1ncc(C(=O)N2CCOC(C(=O)Nc3ccccc3)C2)cn1 (stereo not given)
- cytotoxicity at 70.5 h: -2.73%

Compound: CN1CCCC1c1cncc(C(=O)NCc2ccccc2)n1 (stereo not given)
- cytotoxicity at 70.5 h: -2.59%

Compound: O=C(Cc1cccnc1)N1CC(Cc2nccc3cc[nH]c23)C1
- cytotoxicity at 70.5 h: 6.89%

Compound: Cc1c(CCC(=O)N2CCOC(c3cnccn3)C2)cnn1C (stereo not given)
- cytotoxicity at 70.5 h: -2.28%

Compound: Cc1cc2nccc(C3CCN(C(=O)c4ccccc4F)CC3)n2n1
- cytotoxicity at 70.5 h: -4.04%

Compound: Cc1cc(C)nc(N2CCCC2c2[nH]ncc2C(=O)N(C)C)n1 (stereo not given)
- cytotoxicity at 70.5 h: -3.67%

Compound: COCCC(=O)N1C[C@@H](c2ccccc2F)[C@@]2(CCCC(=O)N2)C1
- cytotoxicity at 70.5 h: -7.07%

Compound: Oc1cc(-c2ccsc2)nc(C2CCN(Cc3ccncc3)CC2)n1
- cytotoxicity at 70.5 h: -3.71%

Compound: CN1CCCC1c1cncc(C(=O)NCC2CC2)n1 (stereo not given)
- cytotoxicity at 70.5 h: -6.82%

Compound: O=C(N[C@H]1CN[C@H]2CCCO[C@H]21)c1ccno1
- cytotoxicity at 70.5 h: -4.14%

Compound: O=C(N[C@H]1CN[C@H]2CCCO[C@H]21)c1cscn1
- cytotoxicity at 70.5 h: -4.74%

Compound: Cc1nc(-c2ccc(CO)cc2)cc(C2CCNCC2)n1
- cytotoxicity at 70.5 h: -2.27%

Compound: CCOCC1CN(S(=O)(=O)N(C)C)Cc2cnn(C)c21 (stereo not given)
- cytotoxicity at 70.5 h: -6.39%

Compound: CN(C)CC1CN(C(=O)NCc2ccccc2)Cc2nccn2C1 (stereo not given)
- cytotoxicity at 70.5 h: -5.97%

Compound: O=C1COC2(CCN(Cc3cccs3)CC2)CN1c1ccccc1
- cytotoxicity at 70.5 h: -4.47%

Compound: CN(C)c1nccc(N2CCO[C@H]3CN(Cc4ccsc4)C[C@H]32)n1
- cytotoxicity at 70.5 h: -6%

Compound: O=C(C1CCOCC1)N1C[C@@H]2C[C@@H](c3nc(C4CC4)cs3)O[C@@H]2C1
- cytotoxicity at 70.5 h: 8.69%

Compound: O=C1COC2(CCN(CC3CC3)CC2)CN1c1ccccc1
- cytotoxicity at 70.5 h: -9.15%

Compound: Cc1ccc(CN2CCc3c(C(=O)N(C)C)nn(C)c3C2)s1
- cytotoxicity at 70.5 h: -5.06%

Compound: CS(=O)(=O)N1CCC2(CN(C(=O)c3cccnc3)C2)C1
- cytotoxicity at 70.5 h: -2.66%

Compound: c1ccc(-c2ccc3nc(C4CCN(CC5CC5)CC4)nn3c2)cc1
- cytotoxicity at 70.5 h: -6.34%

Compound: O=C1C[C@H]2[C@@H](CCN2C(=O)c2ccccc2)N1CCN1CCOCC1
- cytotoxicity at 70.5 h: -5.41%

Compound: COCc1nn(C(C)C)c2c1CCN(Cc1ccc(C)s1)C2
- cytotoxicity at 70.5 h: -8.69%

Compound: O=C(C1CCOCC1)N1C[C@@H]2[C@@H](C1)OCC(=O)N2Cc1ccncc1
- cytotoxicity at 70.5 h: -5.97%

Compound: O=C(NC[C@H]1OC[C@@H]2CCN(Cc3ccco3)C[C@@H]21)c1ccsc1
- cytotoxicity at 70.5 h: -5.61%

Compound: Cc1ncnc2c1CCN(Cc1ccc3c(c1)OCO3)CC2
- cytotoxicity at 70.5 h: -3.06%

Compound: COc1ccc(CN2CCOC3(CCCN(c4nnc(C)o4)C3)C2)cc1 (stereo not given)
- cytotoxicity at 70.5 h: -2.27%

Compound: CS(=O)(=O)N1CCOCC2(CCN(C(=O)c3cccnc3)CC2)C1
- cytotoxicity at 70.5 h: -7.84%

Compound: CN(C)C(=O)N1C[C@@H]2CCCO[C@@H]2[C@H](N(C)Cc2ccco2)C1
- cytotoxicity at 70.5 h: -11.5%

Compound: CCOCC1CN(Cc2ccoc2)Cc2nn(CC3CC3)cc21 (stereo not given)
- cytotoxicity at 70.5 h: 5.44%

Compound: CCN1CC2(CC1=O)CN(Cc1cnn(C)c1)CCN(C(C)=O)C2 (stereo not given)
- cytotoxicity at 70.5 h: -0.943%

Compound: O=C1COC2(CCN(Cc3ccc(F)cc3)CC2)CN1
- cytotoxicity at 70.5 h: 3.53%

Compound: CCN1CCC(c2nc3ccc(NC(C)C)cn3n2)CC1
- cytotoxicity at 70.5 h: -0.678%

Compound: CCn1nnc2c1C(COC)CN(Cc1cccs1)C2 (stereo not given)
- cytotoxicity at 70.5 h: 1.81%

Compound: CCCS(=O)(=O)N1CCC2(CC1)CN(c1ccccn1)CCO2
- cytotoxicity at 70.5 h: 23.8%

Compound: O=C(C[C@@H]1COC[C@H]2CN(Cc3ccc(F)cc3)C[C@@H]12)N1CCOCC1
- cytotoxicity at 70.5 h: 21.2%

Compound: COc1ccc(CN2CC[C@@H](O)[C@@H]2Cc2ccccc2)cc1
- cytotoxicity at 70.5 h: 38.7%

Compound: O=C(N1CCOCC1)[C@@]12CCO[C@@H]1CCN(CC1CCCCC1)C2
- cytotoxicity at 70.5 h: 27.8%

Compound: Cc1ccc(CN2CCC3(CC2)OC(C(=O)N(C)C)c2ccccc23)o1 (stereo not given)
- cytotoxicity at 70.5 h: -13.3%

Compound: O=C(c1ccco1)N1CCOCC2(CCN(C3CCOCC3)C2)C1 (stereo not given)
- cytotoxicity at 70.5 h: -8.45%

Compound: O=C(N1CCOCC1)[C@@]12CCO[C@@H]1CCN(Cc1ccccc1F)C2
- cytotoxicity at 70.5 h: -9.82%

Compound: Cc1ccc(N2CCCC3(COCCN(c4nccs4)C3)C2)nn1 (stereo not given)
- cytotoxicity at 70.5 h: -9.95%

Compound: Cc1ncsc1CN1C[C@H](C(=O)N2CCCO2)[C@@H]2CCO[C@@H]2C1
- cytotoxicity at 70.5 h: -0.785%

Compound: Cn1ccc(C(=O)NC2CCC23CCN(Cc2cccnc2)CC3)c1 (stereo not given)
- cytotoxicity at 70.5 h: -7.38%

Compound: c1csc(CN2C[C@@H]3OCCN(CC4CCCO4)[C@@H]3C2)c1 (stereo not given in full)
- cytotoxicity at 70.5 h: -7.54%

Compound: Cc1cccc(Cn2c3c(ccc2=O)CCN(Cc2ccoc2)CC3)n1
- cytotoxicity at 70.5 h: -9.52%

Compound: c1cncc(CO[C@H]2CC[C@H]3[C@@H]2OCCN3C2CCOCC2)c1
- cytotoxicity at 70.5 h: -2.22%

Compound: Cc1csc(CN2CCC[C@]3(C[C@H](Oc4ccccn4)CO3)C2)n1
- cytotoxicity at 70.5 h: 16%

Compound: Cc1nc(CN2CCOCC3(CCN(c4cccnc4)CC3)C2)cs1
- cytotoxicity at 70.5 h: 2.23%

Compound: COCC1c2c(cnn2C)CCN1Cc1ccc(F)cc1 (stereo not given)
- cytotoxicity at 70.5 h: -0.871%

Compound: Fc1cnc(N2C[C@H]3CCC[C@@]3(COc3ccccn3)C2)nc1
- cytotoxicity at 70.5 h: -7.17%

Compound: c1cncc(CO[C@H]2CO[C@@]3(CCN(Cc4ccoc4)C3)C2)c1
- cytotoxicity at 70.5 h: -20.1%

Compound: COCCN1C[C@@H]2[C@@H](OC)CCN(Cc3cccc(C)n3)[C@@H]2C1
- cytotoxicity at 70.5 h: -8.62%

Compound: CO[C@H]1CCN(Cc2cnn(C)c2)[C@@H]2CN(Cc3cccnc3)C[C@H]12
- cytotoxicity at 70.5 h: -25.8%

Compound: OCCN(Cc1ccncc1)CC1(c2ccc(Cl)cc2)CC1
- cytotoxicity at 70.5 h: -4.99%

Compound: Fc1ccc([C@@H]2COC[C@H]2NCc2cccc(F)c2)cc1
- cytotoxicity at 70.5 h: -3.65%
